Legend:
KCNH2-1A mRNA expression = assay: KCNH2-1A expression in frontal cortex of neuroleptic treated rats; details: for effect on KCNH2-1A expression within the frontal cortex: one of three doses for 28 days, vs vehicle; for change in KCNH2-1A expression, frontal cortex: 28 days
Protocol: (§1) Referring to FIG. 19, 8-10 rats per treatment group were treated with one of three doses of either Haloperidol (0.08, 0.6, and 1 mg/kg) or Clozapine (0.5, 5, 10 mg/kg) for 28 days (as compared to rats treated with vehicle alone). Frontal cortex expression levels of NOS3 (ABI assay Rn02132634_sl) and KCNH2-1A (ABI assay Rn01442523_ml) were normalized to the geometric mean of two housekeeping genes (GAPDH, B2M). Effects of antipsychotic treatment on gene expression were tested by linear regression with gene expression as the dependent variable. Differences between vehicle alone and the two therapeutic range equivalent dosages (0.08 and 0.6 mg/kg/day of Haloperidol; 0.5 and 5 mg/kg/day of Clozapine) were tested using post-hoc LSD.

NOS3 mRNA expression = assay: NOS3 expression in frontal cortex of neuroleptic treated rats; format: in vivo, rat; details: one of three doses for 28 days, vs vehicle
Protocol: as §1

[1] = tested on: patients with schizophrenia; assay: CATIE trial, time to discontinuation of olanzapine (Cox proportional hazard model); format: in vivo, human; details: for hazard ratio (HR) of discontinuation of medication: n=89; for Time to discontinuation, Est (COX proportional hazard model) / Time to discontinuation, HR (hazard ratio): n = 89, event = 46
Description: The second cohort consisted of patients randomly assigned to five medications during the Phase 1/1A (first drug assigned) of the Clinical Antipsychotic Trials of Intervention Effectiveness (CATIE), (Stroup T S, McEvoy J P, Swartz M S, et al. The National Institute of Mental Health Clinical Antipsychotic Trials of Intervention Effectiveness (CATIE) project: Schizophrenia trial design and protocol development. Schizophr. Bull. 2003; 29(1):15-31) a clinical trial to compare the effectiveness of antipsychotic drugs. Patients were initially randomly assigned to receive olanzapine, perphenazine, quetiapine, risperidone or ziprasidone under double-blind conditions and followed up for 18 months or until treatment was discontinued or switched to another antipsychotic (i.e. Phase 2). Eligible patients were 18 to 65 years of age, had received a diagnosis of schizophrenia based on DSM-IV criteria 26 and were able to take oral antipsychotic medication. The primary outcome measure in the CATIE sample was time to medication discontinuation, most often due to lack of efficacy or side-effects. PANSS ratings were included as a secondary efficacy outcome. Details on the CATIE trial methods have been previously published. (Stroup T S, McEvoy J P, Swartz M S, et al. The National Institute of Mental Health Clinical Antipsychotic Trials of Intervention Effectiveness (CATIE) project: Schizophrenia trial design and protocol development. Schizophr. Bull. 2003; 29(1):15-31.) For consistency with the NIMH inpatient study and to reduce effects of genetic heterogeneity, only Caucasian subjects were included for analysis. Because of the outpatient and parallel design of this study, information about compliance based on drug clearance is an important factor determining symptom change during the CATIE trial. (Bigos K L, Pollock B G, Coley K C, et al. Sex, race, and smoking impact olanzapine exposure. Journal of Clinical Pharmacology. 2008; 48(2):157-165; Bigos K L, Bies R R, Pollock B G, Lowy J J, Zhang F, Weinberger D R. Genetic Variation in CYP3A43 Explains Racial Difference in Olanzapine Clearance. Molecular Psychiatry. In Press.) Thus, we only analyzed treatment response from subjects on whom we had drug clearance data (N=364) (Bigos K L, Pollock B G, Coley K C, et al. Sex, race, and smoking impact olanzapine exposure. Journal of Clinical Pharmacology. 2008; 48(2):157-165). Drug clearance was estimated using population pharmacokinetic modeling of drug concentrations and used in the statistical analysis of treatment response as previously described. (Bigos K L, Pollock B G, Coley K C, et al. Sex, race, and smoking impact olanzapine exposure. Journal of Clinical Pharmacology. 2008; 48(2):157-165. Bigos K L, Bies R R, Pollock B G, Lowy J J, Zhang F, Weinberger D R. Genetic Variation in CYP3A43 Explains Racial Difference in Olanzapine Clearance. Molecular Psychiatry. In Press.)
We genotyped three SNPs rs3900779, rs748693 and rs1036145 in KCNH2 which have been associated with schizophrenia and with expression of the novel KCNH2 3.1 isoform in human post-mortem brain. (Huffaker S J, Chen J S, Nicodemus K K, et al. A primate-specific, brain isoform of KCNH2 affects cortical physiology, cognition, neuronal repolarization and risk of schizophrenia. Nat. Med. May 2009; 15(5):509-518.) Genotypes were determined using the 5′-exonuclease fluorescent Taqman assay (assay by design or assay on demand) and the allelic discrimination was read on an ABI 7900 SDS system (Applied Biosystems, Foster City, Calif.). (Livak K J. Allelic discrimination using fluorogenic probes and the 5′ nuclease assay. Genet. Anal.-Biomol. Eng. February 1999; 14(5-6):143-149.)
We also attempted to examine time to discontinuation of medication, which was a primary outcome measure of the CATIE trial. […]

[2] = rs748693, second genotype line (genotype not given) vs non-risk allele homozygote
[3] = rs748693 GG genotype vs non-risk allele homozygote
[4] = rs1036145, second genotype line (genotype not given) vs non-risk allele homozygote
[5] = rs1036145 TT genotype vs non-risk allele homozygote
[6] = rs3900779, second genotype line (genotype not given) vs reference
[7] = rs3900779, third genotype line (genotype not given) vs reference

Structure (SMILES) | effect on KCNH2-1A expression within the frontal cortex (KCNH2-1A mRNA expression) | change in KCNH2-1A expression, frontal cortex (KCNH2-1A mRNA expression; 0.08 mg/kg/day, did not reach significance (p=0.082)) | change in KCNH2-1A expression, frontal cortex (KCNH2-1A mRNA expression; 0.6 mg/kg/day, did not reach significance (p=0.119)) | effect on NOS3 expression within the frontal cortex (NOS3 mRNA expression) | times less likely to have discontinued medication ([1]; GG genotype at rs748693 vs non-risk allele homozygote) | hazard ratio (HR) of discontinuation of medication ([1]; GG genotype at rs748693 vs non-risk allele homozygote, p=0.031) | times less likely to have discontinued medication ([1]; TT genotype at rs1036145 vs non-risk allele homozygote) | hazard ratio (HR) of discontinuation of medication ([1]; TT genotype at rs1036145 vs non-risk allele homozygote, p=0.033) | Time to discontinuation, Est (COX proportional hazard model) [1, 2] | Time to discontinuation, HR (hazard ratio) [1, 2] | Time to discontinuation, Est (COX proportional hazard model) [1, 3] | Time to discontinuation, HR (hazard ratio) [1, 3] | Time to discontinuation, Est (COX proportional hazard model) [1, 4] | Time to discontinuation, HR (hazard ratio) [1, 4] | Time to discontinuation, Est (COX proportional hazard model) [1, 5] | Time to discontinuation, HR (hazard ratio) [1, 5] | Time to discontinuation, Est (COX proportional hazard model) [1, 6] | Time to discontinuation, HR (hazard ratio) [1, 6] | Time to discontinuation, Est (COX proportional hazard model) [1, 7] | Time to discontinuation, HR (hazard ratio) [1, 7]
CN1CCN(C2=Nc3cc(Cl)ccc3Nc3ccccc32)CC1 [clozapine] | Neither clozapine nor haloperidol showed significant effects | – | – | – | – | – | – | – | – | – | – | – | – | – | – | – | – | – | – | –
O=C(CCCN1CCC(O)(c2ccc(Cl)cc2)CC1)c1ccc(F)cc1 [haloperidol] | Neither clozapine nor haloperidol showed significant effects | slight decrease | slight decrease | Neither clozapine nor haloperidol showed significant effects | – | – | – | – | – | – | – | – | – | – | – | – | – | – | – | –
Cc1cc2c(s1)Nc1ccccc1N=C2N1CCN(C)CC1 [olanzapine] | – | – | – | – | ~4 times | 0.254 | ~5 times | 0.208 | −0.119 | 0.888 | −1.371 | 0.254 | −0.06 | 0.942 | −1.569 | 0.208 | −0.431 | 0.65 | −0.688 | 0.503

— patent US8871443B2, “Schizophrenia-related isoform of KCNH2 and development of antipsychotic drugs” (The United States of America, as represented by the …, priority 2007, dated 2014)
